Measured values: ChEMBL document CHEMBL5230133, “Selective Estrogen Receptor Degraders (SERDs): A Promising Strategy for Estrogen Receptor Positive Endocrine-Resistant Breast Cancer” (J Med Chem, 2020)

Assays:
[1] = Inhibition of ESR1 Y537S mutant LBD (unknown origin) transfected in SK-BR-3 cells measured after 22 hrs by luciferase assay; format: cell-based; details: Homo sapiens, SK-BR-3, 22 h
MCF7 [2] = assay: Antiproliferative activity against human MCF7 cells; format: functional, cell-based
Rattus norvegicus = assay: Anti-uterotrophic activity in rat at 10 mg/kg, sc administered once daily for 3 days relative to control; format: functional; details: time 3 day
MCF7 [3] = assay: Antiproliferative activity against human MCF7 cells assessed as reduction in cell proliferation; format: functional, cell-based
[4] = Downregulation of ER in human MCF7 cells assessed as […] measured after 2 days EIA assay; format: functional, cell-based; details: MCF7, 48 h
Estrogen receptor = target: T1, Estrogen receptor (Homo sapiens, UniProt P03372); assay: Inhibition of ER (unknown origin) by luciferase reporter assay
T1 sequence (P03372 whole entry): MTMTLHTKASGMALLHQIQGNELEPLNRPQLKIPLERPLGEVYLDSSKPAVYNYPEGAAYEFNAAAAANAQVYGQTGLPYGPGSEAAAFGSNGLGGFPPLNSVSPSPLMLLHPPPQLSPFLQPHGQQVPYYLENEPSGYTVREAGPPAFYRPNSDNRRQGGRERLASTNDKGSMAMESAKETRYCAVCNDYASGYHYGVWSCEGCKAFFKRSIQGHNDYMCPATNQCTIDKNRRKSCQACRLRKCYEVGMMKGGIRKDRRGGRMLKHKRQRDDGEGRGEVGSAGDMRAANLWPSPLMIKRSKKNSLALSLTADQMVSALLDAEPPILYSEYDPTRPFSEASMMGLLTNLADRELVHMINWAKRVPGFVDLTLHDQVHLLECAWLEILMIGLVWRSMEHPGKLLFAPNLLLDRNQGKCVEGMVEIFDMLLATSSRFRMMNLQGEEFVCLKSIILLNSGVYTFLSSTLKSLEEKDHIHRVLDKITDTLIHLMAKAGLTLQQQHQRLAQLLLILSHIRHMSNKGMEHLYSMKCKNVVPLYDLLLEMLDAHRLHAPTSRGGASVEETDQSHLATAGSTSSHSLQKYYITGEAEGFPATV

Work on `C[C@]12CC[C@@H]3c4ccc(O)cc4C[C@@H](CCCCCCCCC[S+]([O-])CCCC(F)(F)C(F)(F)F)[C@H]3[C@@H]1CC[C@@H]2O` (some centres not stated) [FULVESTRANT] yielded an IC50 [1] of 22 nM and an IC50 (MCF7 [2]) of 0.35 nM.
Work on `CCCCNC(=O)CCCCCCCCCC[C@@H]1Cc2cc(O)ccc2C2CC[C@@]3(C)C(CC[C@@H]3O)C21` (some centres not stated) yielded an Activity (Rattus norvegicus) of 100%.
Work on `CN(CCCCC[C@@H]1Cc2cc(O)ccc2C2C1C1CC[C@H](O)[C@@]1(C)C[C@@H]2F)CCCSCCCC(F)(F)C(F)(F)F` (some centres not stated) yielded an IC50 (MCF7 [2]) of 2.4 nM.
`CN(CCCCCCC(F)(F)C(F)(F)C(F)(F)C(F)(F)F)CCCCC[C@@H]1Cc2cc(O)ccc2C2C1C1CC[C@H](O)[C@@]1(C)C[C@@H]2F` (some centres not stated) gave an IC50 (MCF7 [2]) of 1.9 nM.
Work on `CCNCCc1ccc(CN(CC)c2cc(OC)ccc2[C@@H]2CCc3cc(O)ccc3C2)cc1` [ELACESTRANT] yielded an IC50 (MCF7 [3]) of 4.2 nM.
Compound `C[C@]12C[C@H](c3ccc(OCCCCCS(=O)(=O)CCCC(F)(F)C(F)(F)F)cc3)C3c4ccc(O)cc4CCC3C1CC[C@@H]2O` (some centres not stated) has an IC50 (MCF7 [2]) of 0.13 nM.
For `CCCCN(C)C(=O)CCCCCCCCCC[C@@H]1Cc2cc(O)ccc2C2CC[C@@]3(C)C(CC[C@@H]3O)C21` (some centres not stated), the Activity (Rattus norvegicus) was 105%.
For `CC1=C(c2ccc(O)cc2)[C@H](c2ccc(OCCN3CC[C@@H](C)C3)cc2)Oc2cc(O)ccc21`, the IC50 [1] was 8 nM and the IC50 (MCF7 [2]) was 9.2 nM.
Compound `C[C@]12CCC3c4ccc(O)cc4C[C@@H](CCCCCCCC[C@H](CCCC(F)(F)C(F)(F)C(F)(F)C(F)(F)F)C(=O)O)C3C1CCC2=O` (some centres not stated) has an IC50 [4] of 24 nM and an IC50 (Estrogen receptor) of 49.8 nM.
